Source: PubChem BioAssay AID208 (DTP/NCI, 2004)
Records with an inconclusive call do not appear.

Tested on: HT29 intrarenal xenograft, nude mice, tumor weight change
Assay: NCI In Vivo Anticancer Drug Screen. Data for tumor model HT29;CX-1 Human Adenocarcinoma (MER+) (intrarenal inoculation) in NU/NU BALB/C (nude) mice
Conditions: endpoint: mean tumor weight change, higher = larger tumour
Experimental: The antitumor activity of compounds was measured in mice bearing transplantable tumors. Survival or tumor size were measured and the results are expressed as the measurement made in the treated group (T) divided by the measurement made in the vehicle treated control group (C). The tumor model used in this assay is HT29;CX-1 Human Adenocarcinoma (MER+) (intrarenal inoculation) in NU/NU BALB/C (nude) mice

Row | SMILES | T/C (dose: 150.0 mg/kg/injection, schedule: Q04DX004 (sc), vehicle: saline with Tween-80) | T/C (dose: 300.0 mg/kg/injection, schedule: Q04DX004 (sc), vehicle: saline with Tween-80) | T/C (dose: 600.0 mg/kg/injection, schedule: Q04DX004 (sc), vehicle: saline with Tween-80) | T/C (dose: 1200.0 mg/kg/injection, schedule: Q04DX004 (sc), vehicle: saline with Tween-80) | T/C (dose: 150.0 mg/kg/injection, schedule: Q04DX004 (ip), vehicle: saline) | T/C (dose: 150.0 mg/kg/injection, schedule: Q04DX004 (sc), vehicle: saline) | T/C (dose: 300.0 mg/kg/injection, schedule: Q04DX004 (ip), vehicle: saline) | T/C (dose: 300.0 mg/kg/injection, schedule: Q04DX004 (sc), vehicle: saline) | T/C (dose: 600.0 mg/kg/injection, schedule: Q04DX004 (ip), vehicle: saline) | T/C (dose: 600.0 mg/kg/injection, schedule: Q04DX004 (sc), vehicle: saline)
1 | C=COC(=O)C(Cc1ccccc1)NC(=O)OCc1ccccc1 (stereo not given) | 100 % of control | 80 % of control | 123 % of control | 60 % of control |  |  |  |  |  | 
2 | CCOC(=O)C(N)CSC(=O)NC (stereo not given) |  |  |  |  | 108 % of control | 58 % of control | 103 % of control | 75 % of control | 111 % of control | 59 % of control
